Activity calls are given as the source filed them. The calls are words filed in the database; no cut-off is given here.
Tests used:
[1] = target: Glycogen synthase kinase-3 beta (Homo sapiens) (UniProt P49841); assay: Inhibition of GSK3B (unknown origin) at 1 uM measured after 1 hr relative to control
[2] = target: Mitogen-activated protein kinase kinase kinase kinase 4 (Homo sapiens) (UniProt O95819); assay: Inhibition of MAP4K4 (unknown origin) at 1 uM measured after 1 hr relative to control
[3] = target: Serine/threonine-protein kinase PLK2 (Homo sapiens) (UniProt Q9NYY3); assay: Inhibition of PLK2 (unknown origin) at 1 uM measured after 1 hr relative to control
[4] = target: Mitogen-activated protein kinase kinase kinase 9 (Homo sapiens) (UniProt P80192); assay: Inhibition of MAP3K9 (unknown origin) at 1 uM measured after 1 hr relative to control
Mitogen-activated protein kinase kinase kinase 9 (Homo sapiens), sequence (P80192 whole entry, looked up): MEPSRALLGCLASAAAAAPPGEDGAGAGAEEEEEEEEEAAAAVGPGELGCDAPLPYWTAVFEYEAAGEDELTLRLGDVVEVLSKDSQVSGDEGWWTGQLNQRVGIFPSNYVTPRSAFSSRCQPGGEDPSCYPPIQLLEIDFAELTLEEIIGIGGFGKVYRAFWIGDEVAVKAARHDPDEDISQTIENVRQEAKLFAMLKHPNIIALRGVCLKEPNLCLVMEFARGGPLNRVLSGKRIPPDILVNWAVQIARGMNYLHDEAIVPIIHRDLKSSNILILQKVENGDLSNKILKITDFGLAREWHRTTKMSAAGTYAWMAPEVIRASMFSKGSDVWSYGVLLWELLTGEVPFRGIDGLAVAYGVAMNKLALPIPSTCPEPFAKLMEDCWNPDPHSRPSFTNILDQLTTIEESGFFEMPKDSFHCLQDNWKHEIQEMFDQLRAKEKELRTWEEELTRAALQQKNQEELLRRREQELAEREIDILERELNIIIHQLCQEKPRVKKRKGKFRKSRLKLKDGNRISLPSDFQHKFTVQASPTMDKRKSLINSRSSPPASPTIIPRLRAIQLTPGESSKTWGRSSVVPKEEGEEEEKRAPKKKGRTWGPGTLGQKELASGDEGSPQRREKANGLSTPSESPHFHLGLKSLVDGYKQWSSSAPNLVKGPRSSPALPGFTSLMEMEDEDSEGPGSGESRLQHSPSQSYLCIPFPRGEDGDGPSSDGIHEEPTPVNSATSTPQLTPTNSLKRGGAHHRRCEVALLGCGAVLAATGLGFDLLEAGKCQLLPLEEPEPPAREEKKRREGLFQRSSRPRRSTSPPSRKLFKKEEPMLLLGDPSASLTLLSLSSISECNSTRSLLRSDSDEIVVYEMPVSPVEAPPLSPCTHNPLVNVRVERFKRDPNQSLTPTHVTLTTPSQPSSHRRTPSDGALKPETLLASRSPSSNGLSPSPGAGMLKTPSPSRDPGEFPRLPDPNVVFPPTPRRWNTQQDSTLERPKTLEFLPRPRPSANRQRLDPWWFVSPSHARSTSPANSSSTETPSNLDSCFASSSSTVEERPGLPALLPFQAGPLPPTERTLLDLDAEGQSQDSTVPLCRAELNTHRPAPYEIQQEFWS

[5] = target: T1, Serine/threonine-protein kinase BRSK1 (Homo sapiens) (UniProt Q8TDC3); assay: Inhibition of BRSK1 (unknown origin) at 1 uM measured after 1 hr relative to control
T1 sequence (whole entry): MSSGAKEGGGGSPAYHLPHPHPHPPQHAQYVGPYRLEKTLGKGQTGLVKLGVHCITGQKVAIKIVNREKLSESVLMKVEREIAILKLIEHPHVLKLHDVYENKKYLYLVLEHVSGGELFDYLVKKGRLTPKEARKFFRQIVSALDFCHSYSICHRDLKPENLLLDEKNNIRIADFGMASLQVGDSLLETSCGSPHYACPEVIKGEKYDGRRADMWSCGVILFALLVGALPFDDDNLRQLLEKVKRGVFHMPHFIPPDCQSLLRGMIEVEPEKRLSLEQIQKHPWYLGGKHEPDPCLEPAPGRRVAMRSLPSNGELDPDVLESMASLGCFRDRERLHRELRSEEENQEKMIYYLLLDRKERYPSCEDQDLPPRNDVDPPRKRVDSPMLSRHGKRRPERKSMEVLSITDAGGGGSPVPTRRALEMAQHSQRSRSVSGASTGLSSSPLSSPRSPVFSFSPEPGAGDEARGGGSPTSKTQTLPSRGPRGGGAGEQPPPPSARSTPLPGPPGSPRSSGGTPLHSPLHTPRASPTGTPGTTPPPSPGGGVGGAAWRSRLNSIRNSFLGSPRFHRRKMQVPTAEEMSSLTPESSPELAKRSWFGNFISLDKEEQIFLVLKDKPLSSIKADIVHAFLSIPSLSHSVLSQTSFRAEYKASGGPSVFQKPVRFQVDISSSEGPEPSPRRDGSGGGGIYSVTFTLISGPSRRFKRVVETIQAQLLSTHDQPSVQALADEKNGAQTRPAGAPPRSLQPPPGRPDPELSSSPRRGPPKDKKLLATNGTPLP

[6] = target: T2, Epidermal growth factor receptor (Homo sapiens, UniProt P00533, L858R/T790M); assay: Inhibition of EGFR T790M/L858R double mutant (unknown origin) preincubated for 60 mins followed by substrate addition and further incubated for 60 mins in presence of ATP by IMAP-FP assay
T2 sequence (P00533 25-1210 T790M/L858R limits assumed): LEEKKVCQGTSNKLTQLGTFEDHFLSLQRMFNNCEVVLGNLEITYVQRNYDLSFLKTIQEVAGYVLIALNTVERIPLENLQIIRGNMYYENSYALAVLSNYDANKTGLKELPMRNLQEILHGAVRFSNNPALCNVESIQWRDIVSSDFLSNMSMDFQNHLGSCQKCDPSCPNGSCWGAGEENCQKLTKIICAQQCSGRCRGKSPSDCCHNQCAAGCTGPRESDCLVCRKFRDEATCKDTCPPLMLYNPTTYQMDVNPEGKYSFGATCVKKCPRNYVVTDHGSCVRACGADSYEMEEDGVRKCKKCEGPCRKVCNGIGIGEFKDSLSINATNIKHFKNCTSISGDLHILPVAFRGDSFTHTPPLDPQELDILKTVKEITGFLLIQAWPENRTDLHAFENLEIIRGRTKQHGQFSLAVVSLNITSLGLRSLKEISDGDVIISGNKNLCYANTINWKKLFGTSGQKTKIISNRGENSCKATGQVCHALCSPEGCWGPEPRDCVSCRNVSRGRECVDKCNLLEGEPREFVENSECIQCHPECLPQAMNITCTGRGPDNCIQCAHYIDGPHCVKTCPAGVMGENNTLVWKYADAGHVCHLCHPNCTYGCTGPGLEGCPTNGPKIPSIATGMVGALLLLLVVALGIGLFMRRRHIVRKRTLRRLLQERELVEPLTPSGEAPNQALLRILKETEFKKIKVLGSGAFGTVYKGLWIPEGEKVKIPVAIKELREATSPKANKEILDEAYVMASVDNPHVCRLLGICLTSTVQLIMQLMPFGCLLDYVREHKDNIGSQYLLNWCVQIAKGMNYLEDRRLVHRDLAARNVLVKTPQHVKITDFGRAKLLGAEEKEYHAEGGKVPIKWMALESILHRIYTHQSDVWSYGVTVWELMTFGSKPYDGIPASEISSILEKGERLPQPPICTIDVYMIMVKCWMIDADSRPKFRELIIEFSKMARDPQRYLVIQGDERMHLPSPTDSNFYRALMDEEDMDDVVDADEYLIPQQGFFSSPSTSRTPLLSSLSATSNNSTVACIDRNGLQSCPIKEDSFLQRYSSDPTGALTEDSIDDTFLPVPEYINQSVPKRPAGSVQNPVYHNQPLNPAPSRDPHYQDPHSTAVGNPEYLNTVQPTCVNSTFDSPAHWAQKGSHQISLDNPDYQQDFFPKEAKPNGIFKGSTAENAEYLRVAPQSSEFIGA

[7] = target: T2, Epidermal growth factor receptor; assay: (§1) Inhibition of EGF-induced phosphorylation of EGFR T790M/L858R double mutant in human NCI-H1975 cells preincubated for 120 mins followed by EGF stimulation and measured after 10 mins by ELISA; assay type: cell-based
[8] = target: Cyclin-dependent kinase 1/cyclin B1 (Homo sapiens) (UniProt P06493+P14635); assay: Inhibition of cdk1/Cyclin B (unknown origin) at 1 uM measured after 1 hr relative to control; assay type: protein-complex assay
[9] = target: Casein kinase I isoform gamma-2 (Homo sapiens) (UniProt P78368); assay: Inhibition of CSNK1G2 (unknown origin) at 1 uM measured after 1 hr relative to control
[10] = target: Serine/threonine-protein kinase Chk2 (Homo sapiens) (UniProt O96017); assay: Inhibition of CHEK2 (unknown origin) at 1 uM measured after 1 hr relative to control
[11] = target: Mitogen-activated protein kinase 8 (Homo sapiens) (UniProt P45983); assay: Inhibition of MAPK8 (unknown origin) at 1 uM measured after 1 hr relative to control
[12] = target: Dual specificity tyrosine-phosphorylation-regulated kinase 1A (Homo sapiens) (UniProt Q13627); assay: Inhibition of DYRK1A (unknown origin) at 1 uM measured after 1 hr relative to control
[13] = target: Protein kinase C alpha type (Homo sapiens) (UniProt P17252); assay: Inhibition of PRKCA (unknown origin) at 1 uM measured after 1 hr relative to control
[14] = target: Serine/threonine-protein kinase B-raf (Homo sapiens) (UniProt P15056); assay: Inhibition of BRAF (unknown origin) at 1 uM measured after 1 hr relative to control
Serine/threonine-protein kinase B-raf (Homo sapiens), sequence (P15056 whole entry): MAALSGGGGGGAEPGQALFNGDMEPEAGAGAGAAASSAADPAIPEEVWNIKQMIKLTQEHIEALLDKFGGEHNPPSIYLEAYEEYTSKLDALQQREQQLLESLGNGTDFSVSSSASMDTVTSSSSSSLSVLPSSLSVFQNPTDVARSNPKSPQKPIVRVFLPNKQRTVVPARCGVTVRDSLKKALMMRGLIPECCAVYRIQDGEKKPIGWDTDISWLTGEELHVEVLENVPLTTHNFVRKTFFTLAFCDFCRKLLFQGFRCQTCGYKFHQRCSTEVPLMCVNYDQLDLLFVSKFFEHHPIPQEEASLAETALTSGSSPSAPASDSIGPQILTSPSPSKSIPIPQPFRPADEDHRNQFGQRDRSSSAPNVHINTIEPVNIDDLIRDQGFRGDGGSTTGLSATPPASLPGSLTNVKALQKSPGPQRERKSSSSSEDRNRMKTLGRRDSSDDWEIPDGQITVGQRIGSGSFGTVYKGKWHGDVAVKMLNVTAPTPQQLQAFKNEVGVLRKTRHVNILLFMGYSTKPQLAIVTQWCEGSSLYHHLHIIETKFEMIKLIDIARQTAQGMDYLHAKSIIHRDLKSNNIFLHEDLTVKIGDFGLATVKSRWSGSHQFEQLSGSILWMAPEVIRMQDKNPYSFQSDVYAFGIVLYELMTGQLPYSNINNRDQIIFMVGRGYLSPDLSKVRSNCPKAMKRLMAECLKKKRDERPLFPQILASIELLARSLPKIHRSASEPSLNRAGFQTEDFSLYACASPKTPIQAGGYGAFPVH

[15] = target: Mitogen-activated protein kinase 3 (Homo sapiens) (UniProt P27361); assay: Inhibition of MAPK3 (unknown origin) at 1 uM measured after 1 hr relative to control
Mitogen-activated protein kinase 3 (Homo sapiens), sequence (P27361 whole entry): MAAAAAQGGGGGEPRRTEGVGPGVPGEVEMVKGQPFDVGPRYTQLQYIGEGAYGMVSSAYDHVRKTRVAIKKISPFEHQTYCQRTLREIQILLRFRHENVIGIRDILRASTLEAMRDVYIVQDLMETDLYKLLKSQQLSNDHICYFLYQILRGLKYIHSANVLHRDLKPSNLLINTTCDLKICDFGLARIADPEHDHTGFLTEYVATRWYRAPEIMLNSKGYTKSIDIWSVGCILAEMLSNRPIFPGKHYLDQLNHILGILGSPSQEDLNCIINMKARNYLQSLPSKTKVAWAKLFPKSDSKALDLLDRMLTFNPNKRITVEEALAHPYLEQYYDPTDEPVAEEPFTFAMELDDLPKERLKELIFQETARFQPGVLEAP

[16] = target: Receptor-type tyrosine-protein kinase FLT3 (Homo sapiens) (UniProt P36888); assay: Inhibition of FLT3 (unknown origin) at 1 uM measured after 1 hr relative to control
[17] = target: Insulin-like growth factor 1 receptor (Homo sapiens) (UniProt P08069); assay: Inhibition of IGF1R (unknown origin) at 1 uM measured after 1 hr relative to control
[18] = target: Dual specificity mitogen-activated protein kinase kinase 1 (Homo sapiens) (UniProt Q02750); assay: Inhibition of MAP2K1 (unknown origin) at 1 uM measured after 1 hr relative to control
[19] = target: T3, Epidermal growth factor receptor (Homo sapiens, UniProt P00533); assay: Inhibition of wild type EGFR (unknown origin) preincubated for 60 mins followed by substrate addition and further incubated for 60 mins in presence of ATP by IMAP-FP assay
T3 sequence (P00533 whole entry): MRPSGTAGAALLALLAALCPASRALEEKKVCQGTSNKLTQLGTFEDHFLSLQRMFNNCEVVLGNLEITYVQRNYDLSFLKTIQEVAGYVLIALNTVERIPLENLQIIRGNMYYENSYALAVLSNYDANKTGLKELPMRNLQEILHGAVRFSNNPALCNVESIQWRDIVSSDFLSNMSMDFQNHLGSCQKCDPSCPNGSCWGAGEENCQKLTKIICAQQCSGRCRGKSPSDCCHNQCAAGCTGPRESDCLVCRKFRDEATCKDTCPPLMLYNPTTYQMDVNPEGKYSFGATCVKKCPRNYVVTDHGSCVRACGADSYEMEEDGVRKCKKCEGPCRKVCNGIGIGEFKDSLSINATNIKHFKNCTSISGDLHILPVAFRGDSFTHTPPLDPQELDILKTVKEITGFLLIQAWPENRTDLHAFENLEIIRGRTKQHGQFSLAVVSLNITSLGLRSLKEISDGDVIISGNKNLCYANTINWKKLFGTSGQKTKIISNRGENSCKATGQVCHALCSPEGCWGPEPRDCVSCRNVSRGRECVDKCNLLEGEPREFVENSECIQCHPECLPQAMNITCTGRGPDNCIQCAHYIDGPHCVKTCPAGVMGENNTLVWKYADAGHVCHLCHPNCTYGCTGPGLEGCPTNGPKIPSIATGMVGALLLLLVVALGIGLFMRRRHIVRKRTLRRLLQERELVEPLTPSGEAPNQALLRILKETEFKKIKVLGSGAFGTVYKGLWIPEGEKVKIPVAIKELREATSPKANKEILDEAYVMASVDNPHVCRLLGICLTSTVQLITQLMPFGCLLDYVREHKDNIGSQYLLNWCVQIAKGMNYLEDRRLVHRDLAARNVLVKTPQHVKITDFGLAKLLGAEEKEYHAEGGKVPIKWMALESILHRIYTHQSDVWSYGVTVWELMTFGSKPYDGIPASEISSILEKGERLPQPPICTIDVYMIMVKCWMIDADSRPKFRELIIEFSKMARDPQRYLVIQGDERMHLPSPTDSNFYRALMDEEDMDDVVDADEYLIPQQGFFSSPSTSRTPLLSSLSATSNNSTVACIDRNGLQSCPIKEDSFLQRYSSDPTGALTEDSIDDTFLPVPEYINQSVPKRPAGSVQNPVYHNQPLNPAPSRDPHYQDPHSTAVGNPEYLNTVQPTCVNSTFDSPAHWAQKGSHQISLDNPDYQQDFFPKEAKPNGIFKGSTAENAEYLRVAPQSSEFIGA

[20] = target: T3, Epidermal growth factor receptor; assay: Inhibition of EGF-induced phosphorylation of wild type EGFR in human NCI-H1975 cells preincubated for 120 mins followed by EGF stimulation and measured after 10 mins by ELISA; assay type: cell-based
NCI-H1975 [21] = assay: Antitumor activity against human NCI-H1975 cells xenografted in mouse model assessed as tumor growth inhibition at 30 mg/kg, po administered bid measured after 11 days relative to control; assay type: functional; settings: 264 h, time 11 day, read-out: TGI
[22] = Oral bioavailability in mouse; assay type: ADME, organism-based; settings: in vivo
[23] = Toxicity in mouse xenografted with human NCI-H1975 cells assessed as change in body weight at 30 mg/kg, po administered bid measured after 11 days; assay type: organism-based; settings: in vivo, 264 h, time 11 day
NCI-H1975 [24] = assay: Antitumor activity against human NCI-H1975 cells xenografted in mouse model assessed as tumor growth inhibition at 30 mg/kg, po administered qd measured after 11 days; assay type: functional, organism-based; settings: time 11.0 day
Homo sapiens = species on record: Homo sapiens; assay: as §1, with “Selectivity ratio of EC50 for inhibition of EGF-induced phosphorylation of wild type EGFR in human NCI-H1975 cells to EC50 for inhibition” for “Inhibition”; assay type: cell-based; settings: time 130.0 min
[25] = Inhibition of EGF-induced phosphorylation of EGFR T790M/L858R double mutant in human NCI-H1975 cells preincubated for 2 hrs followed by EGF stimulation and measured after 10 mins by ELISA; assay type: cell-based

Glycogen synthase kinase-3 beta (Homo sapiens), sequence (P49841 whole entry, looked up): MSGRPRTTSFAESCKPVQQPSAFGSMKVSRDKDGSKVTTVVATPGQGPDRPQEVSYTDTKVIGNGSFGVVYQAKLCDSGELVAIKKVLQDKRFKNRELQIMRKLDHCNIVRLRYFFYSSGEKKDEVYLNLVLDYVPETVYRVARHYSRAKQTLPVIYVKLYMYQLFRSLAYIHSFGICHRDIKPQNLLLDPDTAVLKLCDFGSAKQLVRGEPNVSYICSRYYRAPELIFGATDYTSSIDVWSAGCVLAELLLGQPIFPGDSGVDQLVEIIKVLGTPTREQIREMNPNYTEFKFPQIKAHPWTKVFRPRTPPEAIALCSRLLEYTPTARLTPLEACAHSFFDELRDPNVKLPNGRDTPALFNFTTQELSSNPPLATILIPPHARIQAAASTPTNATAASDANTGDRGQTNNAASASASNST

SMILES: C=CC(=O)N1CCC2(CC1)CNC(=O)c1cc(-c3ccnc(Nc4ccccc4OC)c3)[nH]c12
- inhibition [1]: 34%
- inhibition [2]: 80%
- inhibition [3]: 7%
- inhibition [4]: 1%
- inhibition [5]: 18%
- IC50 [6]: 0.037 µM
- EC50 [7]: > 10 µM
- inhibition [8]: 12%
- inhibition [9]: 79%
- inhibition [10]: 100%
- inhibition [11]: 87%
- inhibition [12]: 46%
- inhibition [13]: 14%
- inhibition [14]: 75%
- inhibition [15]: 81%
- inhibition [16]: 16%
- inhibition [17]: 0%
- inhibition [18]: 80%
- IC50 [19]: 0.192 µM

SMILES: CC#CC(=O)Nc1cccc(-c2nccc(-c3cc4c([nH]3)C3(CCNCC3)CNC4=O)n2)c1
- IC50 [6]: 0.499 µM

SMILES: C=CC(=O)N1CCC2(CC1)CNC(=O)c1cc(-c3ccnc(-c4cccc(OC)c4)n3)[nH]c12
- IC50 [6]: 0.0096 µM
- EC50 [7]: 2.55 µM
- IC50 [19]: 0.032 µM

SMILES: COc1ccccc1Nc1nccc(-c2cc3c([nH]2)C2(CCN(C(=O)C#CN(C)C)CC2)CNC3=O)n1
- IC50 [6]: 0.0028 µM
- EC50 [7]: 2.18 µM
- IC50 [19]: 0.0053 µM

SMILES: C=CC(=O)N1CCC2(CC1)CNC(=O)c1cc(-c3ccnc(Nc4ccccc4OC(C)C)n3)[nH]c12
- inhibition [1]: 88%
- inhibition [2]: 32%
- inhibition [3]: 12%
- EC50 [20]: 0.562 µM
- inhibition in vivo at 30 mg/kg (NCI-H1975 [21]): 60%
- inhibition [4]: 38%
- inhibition [5]: 4%
- IC50 [6]: 0.0013 µM
- EC50 [7]: 0.0088 µM
- inhibition [8]: 8%
- inhibition [9]: 88%
- bioavailability [22]: 11%
- inhibition [10]: 100%
- inhibition [11]: 50%
- Activity [23]: Non-Toxic
- Activity (NCI-H1975 [24]): Active
- inhibition [12]: 70%
- inhibition [13]: 5%
- inhibition [14]: 34%
- inhibition [15]: 40%
- inhibition [16]: 22%
- Ratio EC50 (Homo sapiens): 64
- inhibition [17]: 14%
- inhibition [18]: 48%
- IC50 [19]: 0.0012 µM

SMILES: C=CC(=O)N1CCC2(CC1)CNC(=O)c1cc(-c3nc(Nc4ccccc4OC)ncc3Cl)[nH]c12
- EC50 [20]: 0.277 µM
- IC50 [6]: 0.0008 µM
- EC50 [7]: 0.0031 µM
- Ratio EC50 (Homo sapiens): 89
- IC50 [19]: 0.0009 µM

SMILES: C=CC(=O)N1CCC2(CC1)CNC(=O)c1cc(-c3ccnc(Nc4ccccc4OC)n3)[nH]c12
- inhibition [1]: 85%
- inhibition [2]: 91%
- inhibition [3]: 79%
- EC50 [20]: 0.308 µM
- inhibition [4]: 75%
- inhibition [5]: 18%
- IC50 [6]: 0.0009 µM
- EC50 [7]: 0.04 µM
- inhibition [8]: 71%
- inhibition [9]: 81%
- bioavailability [22]: 3.2%
- inhibition [10]: 99%
- inhibition [11]: 80%
- inhibition [12]: 73%
- inhibition [13]: 30%
- inhibition [14]: 83%
- inhibition [15]: 69%
- inhibition [16]: 85%
- Ratio EC50 (Homo sapiens): 7.7
- inhibition [17]: 3%
- inhibition [18]: 72%
- IC50 [19]: 0.0004 µM

SMILES: C=CC(=O)N1CCC2(CC1)CNC(=O)c1cc(-c3ccnc(-c4ccc5c(c4)OCO5)n3)[nH]c12
- IC50 [6]: 0.0065 µM
- IC50 [19]: 0.043 µM

SMILES: C=CC(=O)N1CCC2(CC1)CNC(=O)c1cc(-c3nc(Nc4ccccc4OC)ncc3C)[nH]c12
- inhibition [1]: 99%
- inhibition [2]: 89%
- inhibition [3]: 86%
- EC50 [20]: 0.165 µM
- inhibition [4]: 98%
- inhibition [5]: 0%
- IC50 [6]: 0.0012 µM
- EC50 [7]: 0.012 µM
- inhibition [8]: 89%
- inhibition [9]: 92%
- bioavailability [22]: 87%
- inhibition [10]: 96%
- inhibition [11]: 85%
- inhibition [12]: 98%
- inhibition [13]: 61%
- inhibition [14]: 98%
- inhibition [15]: 90%
- inhibition [16]: 100%
- Ratio EC50 (Homo sapiens): 14
- inhibition [17]: 69%
- inhibition [18]: 98%
- IC50 [19]: 0.0014 µM

SMILES: C=CC(=O)Nc1cc(Nc2nccc(-c3cn(C)c4ccccc34)n2)c(OC)cc1N(C)CCN(C)C [OSIMERTINIB]
- inhibition [1]: 12%
- inhibition [2]: 78%
- inhibition [3]: 0%
- inhibition [4]: 71%
- inhibition [5]: 7%
- inhibition [8]: 5%
- inhibition [9]: 5%
- bioavailability [22]: 45%
- inhibition [10]: 0%
- inhibition [11]: 0%
- EC50 [25]: 0.015 µM
- inhibition [12]: 0%
- inhibition [13]: 4%
- inhibition [14]: 6%
- inhibition [15]: 0%
- inhibition [16]: 57%
- inhibition [17]: 31%
- inhibition [18]: 0%

Source: ChEMBL document CHEMBL5029169, “Discovery and optimization of covalent EGFR T790M/L858R mutant inhibitors” (Bioorg Med Chem Lett, 2021)
